Measured values from article PMC6686011, “Ruthenium(II) complexes with 6-methyl-2-thiouracil selectively reduce cell proliferation, cause DNA double-strand break and trigger caspase-mediated apoptosis through JNK/p38 pathways in human acute promyelocytic leukemia cells” (Scientific Reports, 2019).

Legend:
[1] = tested on: any cells; assay: Cytotoxicity, alamar blue assay, whole cell panel; format: cell-based; details: 72 h, not cytotoxic at concentrations tested
Experimental: (§1) Cytotoxicity was measured using alamar blue assay and was performed following the procedure that was described previously[21],[22]. Briefly, cells were inserted in 96-well plates and incubated overnight. Then, the complexes were dissolved in dimethyl sulfoxide (DMSO, LGC Biotechnology, São Paulo, SP, Brazil) and added to each well and incubated for 72 h. […] Before the end of treatment (4 h for cell lines and 24 h for PBMC), 20 μL of a stock solution (0.312 mg/mL) of alamar blue (resazurin, Sigma-Aldrich Co.) were added to each well. Absorbance at 570 nm and 600 nm was measured using SpectraMax 190 Microplate Reader (Molecular Devices, Sunnyvale, CA, USA).

[2] = tested on: HL-60 cells; assay: Apoptosis quantification, annexin V-FITC/PI flow cytometry; format: cell-based, human
Experimental: Shortly, cells were washed twice with saline solution and resuspended in 100 μL of binding buffer plus 5 μL of propidium iodide (PI) and 5 μL of FITC Annexin V. Then, cells were gently mixed by vortexing and incubated for 15 min at room temperature in the dark. Finally, 400 μL of binding buffer was added to each tube, and the cell fluorescence was determined by flow cytometry, as described above. Percentage of viable, early apoptotic, late apoptotic and necrotic cells were measured. […] Cells were then analyzed by FITC Annexin V Apoptosis Detection assay as described above.

[3] = tested on: PBMC (human peripheral blood mononuclear cells); assay: Cytotoxicity, alamar blue assay; format: cell-based; details: non-cancer cells, 72 h, read-out: IC50 and 95% CI, PBMC
Source text: HL-60 (human acute promyelocytic leukemia), K-562 (human chronic myelogenous leukemia), HCT116 (human colon carcinoma), HepG2 (human hepatocellular carcinoma), HSC-3 (human oral squamous cell carcinoma), SCC-9 (human oral squamous cell carcinoma), B16-F10 (mouse melanoma), MRC-5 (human lung fibroblast), WT SV40 MEF (wild-type immortalized mouse embryonic fibroblast) and BAD KO SV40 MEF (BAD gene knockout immortalized mouse embryonic fibroblast) cell lines were obtained from American Type Culture Collection (ATCC, Manassas, VA, USA). Human peripheral blood mononuclear cells (PBMC) were isolated using standard Ficoll density gradient from heparinized blood collected from 20- to 35-year-old, non-smoker healthy donors with informed consent (number 031019/2013) approved by Human Ethics Committee of Gonçalo Moniz Institute from Oswaldo Cruz Foundation (IGM-FIOCRUZ/BA), and all experiments were performed in accordance with relevant guidelines and regulations. Cells were cultured as recommended by ATCC guidelines and a mycoplasma stain kit (Sigma-Aldrich) was used to validate the use of cells free from contamination. Cell viability in all experiments was examined using the trypan blue exclusion (TBE) assay. Over 90% of the cells were viable at the beginning of the culture.
as §1

[4] = tested on: HL-60 cell xenografts; assay: Human myeloid leukemia xenograft model; format: in vivo, C.B-17 SCID mice
Experimental: Fifty six specific-pathogen-free (SPF) C.B-17 severe combined immunodeficient (SCID) mice (females, 23–26 g) were used in this study. The animals were obtained and maintained at animal facilities from Gonçalo Moniz Institute-FIOCRUZ (Salvador, Bahia, Brazil), and housed in cages with free access to food and water, and kept under a 12:12 h light-dark cycle (lights on at 6:00 a.m.). The animals were treated according to ethical principles for animal experimentation of SBCAL (Brazilian Association of Laboratory Animal Science), Brazil. Experimental protocol have been approved (number 06/2015) by Animal Ethics Committee of Gonçalo Moniz Institute-FIOCRUZ (Salvador, Bahia, Brazil).
Human myeloid leukemia xenograft model was carry out as described previously by Rodrigues et al.[26] with minor modifications. HL-60 cells (2.5 × 10^7 cells/500 µL) were implanted subcutaneously into the left front armpit of the mice. […] When the tumors reached 100 to 200 mm^3 (22 days after HL-60 cells injection), the animals were treated through the intraperitoneal route (200 µL per animal) once a day for 13 consecutive days. One day after the end of the treatment, the animals were anesthetized, and peripheral blood samples were collected from brachial artery. Animals were euthanized by anesthetic overdose, and tumors were excised and weighed.

[5] = tested on: B16-F10 (mouse melanoma); assay: Cytotoxicity, alamar blue assay; format: cell-based; details: for Selectivity index, B16-F10 versus MRC-5: SI = IC50[MRC-5]/IC50[B16-F10]; for Selectivity index, B16-F10 versus PBMC: SI = IC50[PBMC]/IC50[B16-F10]
Experimental: as §1

[6] = tested on: WT SV40 MEF (wild-type immortalized mouse embryonic fibroblasts); assay: Cytotoxicity, alamar blue assay; format: cell-based; details: 72 h, read-out: IC50, WT SV40 MEF cell line
Experimental: as §1

[7] = tested on: HCT116 (human colon carcinoma); assay: Cytotoxicity, alamar blue assay; format: cell-based; details: for Selectivity index, HCT116 versus MRC-5: SI = IC50[MRC-5]/IC50[HCT116]; for Selectivity index, HCT116 versus PBMC: SI = IC50[PBMC]/IC50[HCT116]
Experimental: as §1

[8] = tested on: HepG2 (human hepatocellular carcinoma); assay: Cytotoxicity, alamar blue assay; format: cell-based; details: for Selectivity index, HepG2 versus MRC-5: SI = IC50[MRC-5]/IC50[HepG2]; for Selectivity index, HepG2 versus PBMC: SI = IC50[PBMC]/IC50[HepG2]
Experimental: as §1

[9] = tested on: HL-60 (human acute promyelocytic leukemia); assay: Cytotoxicity, alamar blue assay; format: cell-based; details: for Selectivity index, HL-60 versus MRC-5: SI = IC50[MRC-5]/IC50[HL-60]; for Selectivity index, HL-60 versus PBMC: SI = IC50[PBMC]/IC50[HL-60]; for IC50: alamar blue, 72 h, read-out: IC50 and 95% CI, HL-60
Experimental: as §1

[10] = tested on: BAD KO SV40 MEF (immortalized mouse embryonic fibroblast with the BAD gene knocked out); assay: Cytotoxicity, alamar blue assay; format: cell-based; details: 72 h, read-out: IC50, BAD KO SV40 MEF cell line
Experimental: as §1

[11] = tested on: K-562 (human chronic myelogenous leukemia); assay: Cytotoxicity, alamar blue assay; format: cell-based; details: for Selectivity index, K-562 versus MRC-5: SI = IC50[MRC-5]/IC50[K-562]; for Selectivity index, K-562 versus PBMC: SI = IC50[PBMC]/IC50[K-562]
Experimental: as §1

[12] = tested on: HSC-3 (human oral squamous cell carcinoma); assay: Cytotoxicity, alamar blue assay; format: cell-based; details: for Selectivity index, HSC-3 versus MRC-5: SI = IC50[MRC-5]/IC50[HSC-3]; for Selectivity index, HSC-3 versus PBMC: SI = IC50[PBMC]/IC50[HSC-3]; for IC50: alamar blue, 72 h, read-out: IC50 and 95% CI, HSC-3
Experimental: as §1

[13] = tested on: SCC-4 (human oral squamous cell carcinoma); assay: Cytotoxicity, alamar blue assay; format: cell-based; details: for Selectivity index, SCC-4 versus MRC-5: SI = IC50[MRC-5]/IC50[SCC-4]; for Selectivity index, SCC-4 versus PBMC: SI = IC50[PBMC]/IC50[SCC-4]
Experimental: as §1

[14] = tested on: MRC-5 (human lung fibroblast); assay: Cytotoxicity, alamar blue assay; format: cell-based; details: non-cancer cells, 72 h, read-out: IC50 and 95% CI, MRC-5
Experimental: as §1

[15] = Toxicological evaluation in xenograft mice; format: in vivo, C.B-17 SCID mice; details: complex 1 20 and 40 mg/kg
Experimental: To assess toxicological aspects, mice were weighed at the beginning and at the end of the experiment as described previously by Rodrigues et al.[26]. […] Hematological analysis was performed using the Advia 60 hematology system (Bayer, Leverkusen, Germany). Livers, kidneys, lungs and hearts were removed, weighed and examined for any signs of macroscopic lesions, color changes and/or hemorrhages. After macroscopic examination, tumors, livers, kidneys, lungs and hearts were fixed in 4% formalin buffer and embedded in paraffin. Tissue sections were stained with hematoxylin/eosin staining, and a pathologist performed the histological analyses under optical microscopy.

[16] = tested on: HL-60 cells; assay: Trypan blue exclusion assay; format: cell-based, human
Experimental: The number of viable cells and non-viable (take up trypan blue) were counted by TBE method. Shortly, 90 μL was removed from the cell suspension and 10 μL of trypan blue (0.4%) was added. Cell counting was performed using a light microscope with a neubauer chamber.

[17] = tested on: HL-60 cells; assay: Intracellular ruthenium quantification by energy dispersive X-ray spectrometer; format: cell-based, human; details: HL-60, 3 h, 500 µM
Experimental: Intracellular ruthenium quantification in HL-60 cells was evaluated by energy dispersive X-ray spectrometer (EDS)[23]. Cells were fixed in sodium cacodylate buffer (0.1 M sodium cacodylate solution pH 7.4, plus 2.5% glutaraldehyde and 2% paraformaldehyde) for at least 2 h. After washing, cells were dehydrated in an acetone series and embedded in polybed epoxy resin (Polysciences; Warrington, PA). Ultrathin sections were examined under a JEM-1230 transmission electron microscope (TEM) integrated with an EDS microanalytics system (JEOL USA, Inc., Peabody, MA, USA).

[18] = 20 mg/kg intraperitoneal once a day for 13 consecutive days
[19] = 40 mg/kg intraperitoneal once a day for 13 consecutive days

| Molecule | Apoptosis (annexin V-FITC positive cells) ([2]; HL-60, 12 h, 1 μM) | Apoptosis (annexin V-FITC positive cells) ([2]; HL-60, 12 h, 2 μM) [%] | Apoptosis (annexin V-FITC positive cells) ([2]; HL-60, 24 h, 1 μM) [%] | Apoptosis (annexin V-FITC positive cells) ([2]; HL-60, 24 h, 2 μM) [%] | IC50 [3] [µM] | Selectivity index, B16-F10 versus MRC-5 [5] | Selectivity index, B16-F10 versus PBMC [5] | IC50 [6] [µM] | Selectivity index, HCT116 versus MRC-5 [7] | Selectivity index, HCT116 versus PBMC [7] | Selectivity index, HepG2 versus MRC-5 [8] | Selectivity index, HepG2 versus PBMC [8] | Selectivity index, HL-60 versus MRC-5 [9] | Selectivity index, HL-60 versus PBMC [9] | IC50 [9] [µM] | IC50 [10] [µM] | Selectivity index, K-562 versus MRC-5 [11] | Selectivity index, K-562 versus PBMC [11] | Selectivity index, HSC-3 versus MRC-5 [12] | IC50 [14] [µM] | also measured |
| --- | --- | --- | --- | --- | --- | --- | --- | --- | --- | --- | --- | --- | --- | --- | --- | --- | --- | --- | --- | --- | --- |
| Cc1cc(=O)[nH]c(=S)[nH]1 [6-methyl-2-thiouracil] | – | – | – | – | – | – | – | – | – | – | – | – | – | – | – | – | – | – | – | – | IC50 [1]: > 176 µM |
| Cc1cc(=O)[nH]c([S][Ru]([S]c2nc(C)cc(=O)[nH]2)([PH](c2ccccc2)(c2ccccc2)c2ccccc2)[PH](c2ccccc2)(c2ccccc2)c2ccccc2)n1 [Complex 1, cis-[Ru(6m2tu)2(PPh3)2]] | no statistically significant apoptosis induction | 37.2 | 38.5 | 66.4 | 2.57 | 6.9 | 3.1 | 3.5 | 4.1 | 1.9 | 6 | 2.7 | 571 | 257 | 0.01 | 3.1 | 28.6 | 12.9 | 1.3 | 5.71 | Mean of tumor mass weight [4, 18]: 0.4 ± 0.1 g; Tumor mass inhibition rate [4, 18]: 73.1%; Mean of tumor mass weight [4, 19]: 0.3 ± 0.1 g; Tumor mass inhibition rate [4, 19]: 79.9%; Tumor histomorphological analysis ([4]; 20 and 40 mg, hematoxylin/eosin): areas with nodular/encapsulated growth and extracellular matrix formation were more evident; Selectivity index, HSC-3 versus PBMC [12]: 0.6; IC50 [12]: 4.37 µM; Selectivity index, SCC-4 versus MRC-5 [13]: 3.5; Selectivity index, SCC-4 versus PBMC [13]: 1.6; Liver histopathology [15]: focal areas of steatosis were observed; Kidney histopathology ([15]; doxorubicin 0.1 mg/kg): Coagulation necrosis was observed in renal tubules; Lung histopathology ([15]; doxorubicin 0.1 mg/kg): inflammation was more evident; Reduction of the number of viable cells ([16]; HL-60, 12 h, 1 μM): no statistically significant reduction; Reduction of the number of viable cells ([16]; HL-60, 12 h, 2 μM): 36.9%; Reduction of the number of viable cells ([16]; HL-60, 24 h, 1 μM): 65.3%; Reduction of the number of viable cells ([16]; HL-60, 24 h, 2 μM): 77.1% |
| N.N.[Cl][Pt][Cl] [cisplatin] | – | – | – | – | – | – | – | – | – | – | – | – | – | – | – | – | – | – | – | – | Intracellular platinum [17]: able to quantify platinum |
| O=C1[O][Pt]2([NH][C@@H]3CCCC[C@H]3[NH]2)[O]C1=O [oxaliplatin, reference compound] | – | – | – | – | 14.9 | – | – | – | – | – | – | – | – | – | – | – | – | – | – | 1.54 | IC50 ([5]; alamar blue, 72 h, read-out: IC50 and 95% CI, B16-F10): 0.03 µM; Intracellular platinum [17]: able to quantify platinum |
| [Ru(6m2tu)2(dppb)] [Complex 2] | no statistically significant apoptosis induction | 31.1 | 32.1 | 55.9 | 1.25 | 2.9 | 1.2 | 3.9 | 2.6 | 1.1 | 3.7 | 1.5 | 23.5 | 9.6 | 0.13 | 4.2 | 9 | 3.7 | 1.5 | 3.06 | Selectivity index, HSC-3 versus PBMC [12]: 0.6; IC50 [12]: 2.04 µM; Selectivity index, SCC-4 versus MRC-5 [13]: 2.5; Selectivity index, SCC-4 versus PBMC [13]: 1; Reduction of the number of viable cells ([16]; HL-60, 12 h, 1 μM): no statistically significant reduction; Reduction of the number of viable cells ([16]; HL-60, 12 h, 2 μM): 44.1%; Reduction of the number of viable cells ([16]; HL-60, 24 h, 1 μM): 36.1%; Reduction of the number of viable cells ([16]; HL-60, 24 h, 2 μM): 60.1% |
